Assays:
[1] = tested on: mosquito larvae (Aedes albopictus) cell line; details: Watts et al. 2003; cited from earlier work
Aspergillus fumigatus = experiment: Fungal growth in budmoth test vials with dietary rugulosin; format: cell-based; details: A. fumigatus-contaminated larvae; few vials with fungal growth at 100 and 150 μM
Method: Zeiraphera canadensis larvae (spruce budmoth) were collected from the wild near Sussex in mid June. They were immediately put in test vials and tested at rugulosin concentrations of 10, 50, 100 and 150 μM (75 per concentration). After seven days, surviving larvae were frozen and measured.
Many (60%) succumbed to fungal infections (Aspergillus fumigatus) and other unknown causes over the course of rearing. […] However, using the Wilcoxon matched-pairs signed-ranks test, the larvae fed 100 or 150 μM rugulosin in the diet were lighter than those fed the 10 μM rugulosin and control diets (p<0.10). Because of the high percentage of A. fumigatus-contaminated larvae in the experiment, an unanticipated result was the antifungal activity observed above 50 μM, few vials had fungal growth in the tests at 100 μM and 150 μM rugulosin.

[2] = tested on: Gram positive and negative bacteria; details: reported by many authors, e.g. Stark et al. 1978; cited from earlier work
[3] = tested on: fruit flies (Drosophila melanogaster); details: Dobias et al. 1980; cited from earlier work
[4] = tested on: C. fumiferana (spruce budworm) larvae; experiment: Budworm growth on endophyte-infected nursery trees (mesh bags); format: in vivo, Choristoneura fumiferana; details: four year old trees, branches above and below 0.5 μg g^−1
Text: disease-free second instar spruce budworm larvae as follows: A set number of budworm were placed by hand on lateral branches with buds and then covered with a mesh screen on both endophyte-positive and negative trees. Temperature recorders were placed in the holding area and the progress monitored until the budworm was not greater than sixth instar. At termination, the insects were collected, frozen for subsequent determinations of head capsule width and frozen weight. Samples were collected for toxin analysis to ensure that there was no misclassification of the trees as to their endophyte status.
Nursery experiments: The tests were conducted at the J.D. Irving, Limited Sussex Tree Nursery in New Brunswick, Canada (45° 43′ N, 65° 31′ W; elevation 21.30 m). In two successive years, several hundred seedlings grown as container stock in mulitpot 67 seedling containers were inoculated with the rugulosin-producing endophyte 5WS22E1 (DAOM 229536; CBS 120377). […]
Temperature recorders (Hobo Dataloggers, Onset Computer Corporation, Pocasset, Mass.) were placed in the holding area and the progress monitored until the budworms were not older than sixth instars. […] Head capsule widths were determined using a stereo microscope at 40× with ocular and stage micrometers. […]

[5] = tested on: Choristoneura fumiferana (spruce budworm) larvae; experiment: Dietary rugulosin in artificial diet, spruce budworm larvae; format: in vivo
Method: Spruce budworm (Choristoneura fumiferana) larvae were obtained from the colony at the Natural Resources Canada, Canadian Forest Service Laboratory in Sault Ste. Marie, Ontario and stored at 5° C. For each test, second instar larvae are put in creamer cups containing approximately 15 ml of artificial diet which had been prepared the day before and allowed to set overnight. The diet used is based on McMorran (1965) as modified by Forestry Canada. The cups are placed in a growth chamber at 22° C., 55% RH with 16 h light/day until they reach 4-5 instar as estimated by visually assessment. Batches of diet are prepared and suitable portions were measured out for addition of extracts, fractions or pure compounds. After 4 days on the test diet, the budworms were frozen, weighed and measured. The data was analyzed for dry weight reductions in comparison to controls and for changes in the distribution of insects at different instars in comparison to controls.
C. fumiferana larvae (spruce budworm) were obtained from Insect Production Services, Forestry Canada (Sault Ste. Marie, ON) and stored at 5° C. For each test, a sufficient number of larvae were hatched and put in creamer cups containing 15 ml of artificial diet. The diet was prepared in-house (McMorran 1965). The cups were placed in a growth chamber at 22° C., 55% RH with 16 h light/day until the larvae reached second/third instar (McGugan 1954). A suitable amount of diet was prepared, and 4 aliquots dispensed into a flask. Dilutions of pure rugulosin were made in 95% ethanol to provide the required concentrations (540 μl ethanol solution plus the vehicle control) and added to the flasks respectively. The diet was mixed with a stir bar and by the pipette used to dispense the media. Two drops of hot liquid diet were added with a 10 ml sterile pipette (0.1 g dry weight) to 4 ml tapered plastic sample cups (Fisher Scientific #025444, #25444A). […] Head capsule widths were determined using a stereo microscope at 40× with ocular and stage micrometers. […]

Cc1cc(O)c2c(c1)C(=O)[C@]13C(=C2O)C(=O)[C@@H]2[C@H](O)[C@H]1[C@@H]1[C@@H](O)[C@H]3C(=O)C3=C(O)c4c(O)cc(C)cc4C(=O)[C@]312 [rugulosin]
toxicity to cultured cells [1]: toxic | rugulosin concentration above which antifungal activity was observed (Aspergillus fumigatus): above 50 μM | antibiotic activity [2]: antibiotic | dietary toxicity of rugulosin [3]: ~50 µM | toxicity to Drosophila melanogaster [3]: toxic | Pearson correlation between rugulosin concentration and budworm weight [4]: −0.288 | dietary rugulosin concentration with significantly reduced head capsule ([5]; artificial diet, 4 d): 100 µM | dietary toxic effect level for rugulosin ([5]; dietary LOEL adjusted for mean ratio dry weight:wet weight of needles): 0.5 µg/g | rugulosin concentration in vitro that affected budworm growth and development ([5]; in vitro (diet), Example 1): 1 µg/g

— patent publication US10674699B2, “Endophyte enhanced seedlings with increased pest tolerance” (priority 2006, dated 2020)
